Results published in ChEMBL document CHEMBL1201862, “PubChem BioAssay data set” (2004).
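Where inhibition never reached the appropriate level, the endpoint shown equals the highest concentration tested. Otherwise, values were interpolated linearly from a five-concentration, 48-hour dose response in 96-well plates. Abbreviation: GI50, concentration required for 50% inhibition of growth.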 Calls of active or inactive are those of the source. Cut-off read from the data, not from the text of the source: active = GI50 up to about 1.1 µM and inactive = higher.

Assays:
Assay in all cases: NCI-60 cell line screen, 48 h
SNB-75 = system: SNB-75
MOLT-4 = system: MOLT-4
SF-268 = system: SF-268
T47D = system: T47D
CCRF-CEM = system: CCRF-CEM
HCT-116 = system: HCT-116
OVCAR-8 = system: OVCAR-8
RPMI-8226 = system: RPMI-8226
CAKI-1 = system: CAKI-1
UACC-257 = system: UACC-257
786-0 = system: 786-0
Malme-3M = system: Malme-3M
UACC-62 = system: UACC-62
MDA-MB-231 = system: MDA-MB-231
LOX IMVI = system: LOX IMVI
HL-60 = system: HL-60
MDA-MB-435 = system: MDA-MB-435
TK-10 = system: TK-10
SK-MEL-2 = system: SK-MEL-2
BT-549 = system: BT-549
HCC 2998 = system: HCC 2998
NCI/ADR-RES = system: NCI/ADR-RES
ACHN = system: ACHN
HT-29 = system: HT-29
SW-620 = system: SW-620
SNB-19 = system: SNB-19
HCT-15 = system: HCT-15
MDA-N = system: MDA-N
SF-295 = system: SF-295
NCI-H522 = system: NCI-H522
SR = system: SR
SK-OV-3 = system: SK-OV-3
Hs-578T = system: Hs-578T
K562 = system: K562
HOP-92 = system: HOP-92
OVCAR-5 = system: OVCAR-5
MCF7 = system: MCF7
PC-3 = system: PC-3
OVCAR-3 = system: OVCAR-3
SN12C = system: SN12C
EKVX = system: EKVX
HOP-62 = system: HOP-62
COLO 205 = system: COLO 205
KM12 = system: KM12
NCI-H460 = system: NCI-H460
NCI-H23 = system: NCI-H23
A549 = system: A549
SK-MEL-28 = system: SK-MEL-28
IGROV-1 = system: IGROV-1
DU-145 = system: DU-145
U-251 = system: U-251
A498 = system: A498
M14 = system: M14
SF-539 = system: SF-539
SK-MEL-5 = system: SK-MEL-5
UO-31 = system: UO-31
OVCAR-4 = system: OVCAR-4
RXF 393 = system: RXF 393
NCI-H226 = system: NCI-H226

Measured: GI50

CCC1OC2C(CC=C(C)C)=C3OC(C)(O)C(C)(CC)C(OC(=O)c4ccccc4)C3=C3OC(=O)C=C1C32 (stereo unspecified)
38.4 µM: HCT-15
inactive: SNB-75 42.4 µM | MOLT-4 23.1 µM | SF-268 36 µM | T47D 29 µM | CCRF-CEM 59.2 µM | HCT-116 32.1 µM | OVCAR-8 39.2 µM | RPMI-8226 24.7 µM | CAKI-1 36.6 µM | UACC-257 38.4 µM | 786-0 41.7 µM | Malme-3M 39 µM | UACC-62 30.5 µM | MDA-MB-231 22.4 µM | LOX IMVI 18.4 µM | HL-60 3.44 µM | MDA-MB-435 36.1 µM | TK-10 52 µM | SK-MEL-2 22.8 µM | BT-549 19.1 µM | HCC 2998 21.8 µM | NCI/ADR-RES 36.3 µM | ACHN 39.6 µM | HT-29 40.8 µM | SW-620 57.1 µM | SNB-19 23.8 µM | MDA-N 20.5 µM | SF-295 34.3 µM | NCI-H522 18.8 µM | SR 59.8 µM | SK-OV-3 56.4 µM | Hs-578T 23.1 µM | K562 39 µM | HOP-92 70 µM | OVCAR-5 54.1 µM | MCF7 47.6 µM | PC-3 40.1 µM | OVCAR-3 51.6 µM | SN12C 27.7 µM | EKVX 31.6 µM | HOP-62 76.2 µM | COLO 205 18.1 µM | KM12 39.9 µM | NCI-H460 46.9 µM | NCI-H23 35.2 µM | A549 41.4 µM | SK-MEL-28 83.9 µM | IGROV-1 50.7 µM | DU-145 32.7 µM | U-251 67.9 µM | A498 40.3 µM | M14 45.2 µM | SF-539 25.2 µM | SK-MEL-5 19.8 µM | UO-31 37.2 µM

CCCCC(=O)N/S(=N/C(=O)c1ccccc1)C(Cl)(Cl)Cl (stereo unspecified)
> 100 µM: HCT-15
inactive: OVCAR-4 > 100 µM | SNB-75 > 100 µM | MOLT-4 > 100 µM | SF-268 > 100 µM | T47D > 100 µM | CCRF-CEM > 100 µM | HCT-116 > 100 µM | OVCAR-8 > 100 µM | RPMI-8226 > 100 µM | UACC-257 > 100 µM | 786-0 > 100 µM | Malme-3M > 100 µM | UACC-62 > 100 µM | MDA-MB-231 > 100 µM | LOX IMVI > 100 µM | HL-60 79.1 µM | MDA-MB-435 > 100 µM | TK-10 > 100 µM | SK-MEL-2 > 100 µM | BT-549 > 100 µM | RXF 393 > 100 µM | HCC 2998 > 100 µM | NCI/ADR-RES > 100 µM | ACHN > 100 µM | HT-29 > 100 µM | SW-620 > 100 µM | SNB-19 > 100 µM | MDA-N > 100 µM | SF-295 > 100 µM | SR > 100 µM | SK-OV-3 > 100 µM | Hs-578T > 100 µM | NCI-H226 > 100 µM | K562 > 100 µM | HOP-92 > 100 µM | OVCAR-5 > 100 µM | MCF7 > 100 µM | PC-3 > 100 µM | OVCAR-3 > 100 µM | SN12C > 100 µM | EKVX > 100 µM | HOP-62 > 100 µM | COLO 205 > 100 µM | KM12 > 100 µM | NCI-H460 > 100 µM | NCI-H23 > 100 µM | A549 > 100 µM | SK-MEL-28 > 100 µM | IGROV-1 > 100 µM | DU-145 > 100 µM | U-251 > 100 µM | M14 > 100 µM | SF-539 > 100 µM | SK-MEL-5 > 100 µM | UO-31 > 100 µM

O=[N+]([O-])c1cn[n+]([O-])c2ccccc12
active: SR 0.403 µM | DU-145 1.05 µM
inactive: MOLT-4 1.71 µM | SF-268 4.59 µM | T47D 3.7 µM | CCRF-CEM 2.74 µM | HCT-116 1.24 µM | OVCAR-8 2.18 µM | RPMI-8226 2.03 µM | CAKI-1 2.56 µM | UACC-257 11.4 µM | 786-0 2.43 µM | Malme-3M 15.4 µM | MDA-MB-231 13.2 µM | LOX IMVI 6.67 µM | HL-60 1.17 µM | MDA-MB-435 13.8 µM | TK-10 12.9 µM | BT-549 5.22 µM | HCC 2998 1.7 µM | NCI/ADR-RES 5.14 µM | ACHN 1.13 µM | HT-29 4.65 µM | SW-620 1.98 µM | SNB-19 11.5 µM | MDA-N 13.6 µM | SF-295 4.75 µM | SK-OV-3 13.2 µM | Hs-578T 13.8 µM | NCI-H226 7.36 µM | HOP-92 12.7 µM | OVCAR-5 12.4 µM | MCF7 10.7 µM | PC-3 8.28 µM | OVCAR-3 2.55 µM | SN12C 8.83 µM | EKVX 12.9 µM | HOP-62 12.9 µM | COLO 205 13.2 µM | KM12 5.36 µM | NCI-H460 4.61 µM | NCI-H23 14.7 µM | A549 12 µM | SK-MEL-28 10.4 µM | U-251 4.19 µM | A498 23.1 µM | M14 2.87 µM | SF-539 10.4 µM | SK-MEL-5 13.2 µM
2.06 µM: HCT-15

O=P(c1ccccc1)(c1ccccc1)N1O[C@@H](c2ccccc2)C=C[C@H]1c1ccccc1
inactive: OVCAR-4 2.57 µM | SNB-75 13.3 µM | MOLT-4 5.32 µM | SF-268 12.4 µM | T47D 4.61 µM | CCRF-CEM 10.5 µM | HCT-116 4.11 µM | OVCAR-8 12.8 µM | RPMI-8226 5.79 µM | CAKI-1 5.66 µM | UACC-257 11.9 µM | 786-0 10.4 µM | Malme-3M 14.5 µM | UACC-62 6.17 µM | MDA-MB-231 8.24 µM | LOX IMVI 7.19 µM | HL-60 5.24 µM | MDA-MB-435 4.2 µM | TK-10 14 µM | SK-MEL-2 12 µM | BT-549 17.5 µM | RXF 393 10 µM | HCC 2998 13.7 µM | NCI/ADR-RES 7.13 µM | ACHN 10.2 µM | HT-29 9.75 µM | SW-620 12.9 µM | SNB-19 14.8 µM | MDA-N 3.31 µM | SF-295 11.6 µM | NCI-H522 9.33 µM | SR 4.46 µM | SK-OV-3 15.1 µM | Hs-578T 14.2 µM | NCI-H226 11.9 µM | K562 6.17 µM | HOP-92 11.6 µM | OVCAR-5 16 µM | MCF7 3.4 µM | PC-3 2.96 µM | OVCAR-3 11.6 µM | SN12C 4.36 µM | EKVX 10.4 µM | HOP-62 13.1 µM | COLO 205 12.3 µM | KM12 14.5 µM | NCI-H460 5.53 µM | NCI-H23 10.8 µM | A549 8.81 µM | SK-MEL-28 17.3 µM | IGROV-1 10.8 µM | DU-145 13 µM | U-251 4.37 µM | M14 10.9 µM | SF-539 16.2 µM | SK-MEL-5 11.4 µM | UO-31 5.13 µM
10 µM: HCT-15

COC(=O)[C@@]12CN(C)[C@@H](C(C)(C)C)N1C(=O)OC2c1ccccc1 (stereo partly specified)
> 100 µM: HCT-15
inactive: OVCAR-4 > 100 µM | SNB-75 > 100 µM | MOLT-4 > 100 µM | SF-268 > 100 µM | T47D > 100 µM | CCRF-CEM > 100 µM | OVCAR-8 > 100 µM | RPMI-8226 > 100 µM | CAKI-1 > 100 µM | UACC-257 > 100 µM | 786-0 > 100 µM | Malme-3M > 100 µM | UACC-62 > 100 µM | MDA-MB-231 > 100 µM | LOX IMVI > 100 µM | HL-60 > 100 µM | MDA-MB-435 > 100 µM | TK-10 > 100 µM | BT-549 > 100 µM | RXF 393 > 100 µM | HCC 2998 > 100 µM | NCI/ADR-RES > 100 µM | ACHN > 100 µM | HT-29 > 100 µM | SW-620 > 100 µM | SNB-19 > 100 µM | MDA-N > 100 µM | SF-295 > 100 µM | NCI-H522 > 100 µM | SR > 100 µM | SK-OV-3 > 100 µM | Hs-578T > 100 µM | NCI-H226 > 100 µM | K562 > 100 µM | HOP-92 > 100 µM | OVCAR-5 > 100 µM | MCF7 > 100 µM | PC-3 > 100 µM | OVCAR-3 > 100 µM | SN12C > 100 µM | EKVX > 100 µM | HOP-62 > 100 µM | COLO 205 > 100 µM | KM12 > 100 µM | NCI-H460 > 100 µM | NCI-H23 > 100 µM | A549 > 100 µM | SK-MEL-28 > 100 µM | IGROV-1 > 100 µM | DU-145 > 100 µM | U-251 > 100 µM | M14 > 100 µM | SF-539 > 100 µM | SK-MEL-5 > 100 µM | UO-31 > 100 µM
